Common to all, as to assay: biochemical
Common to all, as to set-up: KINOMEscan active-site competition binding, percent of control (100 = no competition)
Common to all, as to conditions: competition binding, percent control

For experiment [1], the target named is AAK1 (Homo sapiens, UniProt Q2M2I8).
Experiment [2] deals with ABL2 (Homo sapiens, UniProt P42684).
Experiment [3] addresses ALK (Homo sapiens, UniProt Q9UM73).
Experiment [4] deals with T1, ASK1 (Homo sapiens, UniProt Q99683).
T1 construct: gene MAP3K5
T1 sequence (Q99683 whole entry): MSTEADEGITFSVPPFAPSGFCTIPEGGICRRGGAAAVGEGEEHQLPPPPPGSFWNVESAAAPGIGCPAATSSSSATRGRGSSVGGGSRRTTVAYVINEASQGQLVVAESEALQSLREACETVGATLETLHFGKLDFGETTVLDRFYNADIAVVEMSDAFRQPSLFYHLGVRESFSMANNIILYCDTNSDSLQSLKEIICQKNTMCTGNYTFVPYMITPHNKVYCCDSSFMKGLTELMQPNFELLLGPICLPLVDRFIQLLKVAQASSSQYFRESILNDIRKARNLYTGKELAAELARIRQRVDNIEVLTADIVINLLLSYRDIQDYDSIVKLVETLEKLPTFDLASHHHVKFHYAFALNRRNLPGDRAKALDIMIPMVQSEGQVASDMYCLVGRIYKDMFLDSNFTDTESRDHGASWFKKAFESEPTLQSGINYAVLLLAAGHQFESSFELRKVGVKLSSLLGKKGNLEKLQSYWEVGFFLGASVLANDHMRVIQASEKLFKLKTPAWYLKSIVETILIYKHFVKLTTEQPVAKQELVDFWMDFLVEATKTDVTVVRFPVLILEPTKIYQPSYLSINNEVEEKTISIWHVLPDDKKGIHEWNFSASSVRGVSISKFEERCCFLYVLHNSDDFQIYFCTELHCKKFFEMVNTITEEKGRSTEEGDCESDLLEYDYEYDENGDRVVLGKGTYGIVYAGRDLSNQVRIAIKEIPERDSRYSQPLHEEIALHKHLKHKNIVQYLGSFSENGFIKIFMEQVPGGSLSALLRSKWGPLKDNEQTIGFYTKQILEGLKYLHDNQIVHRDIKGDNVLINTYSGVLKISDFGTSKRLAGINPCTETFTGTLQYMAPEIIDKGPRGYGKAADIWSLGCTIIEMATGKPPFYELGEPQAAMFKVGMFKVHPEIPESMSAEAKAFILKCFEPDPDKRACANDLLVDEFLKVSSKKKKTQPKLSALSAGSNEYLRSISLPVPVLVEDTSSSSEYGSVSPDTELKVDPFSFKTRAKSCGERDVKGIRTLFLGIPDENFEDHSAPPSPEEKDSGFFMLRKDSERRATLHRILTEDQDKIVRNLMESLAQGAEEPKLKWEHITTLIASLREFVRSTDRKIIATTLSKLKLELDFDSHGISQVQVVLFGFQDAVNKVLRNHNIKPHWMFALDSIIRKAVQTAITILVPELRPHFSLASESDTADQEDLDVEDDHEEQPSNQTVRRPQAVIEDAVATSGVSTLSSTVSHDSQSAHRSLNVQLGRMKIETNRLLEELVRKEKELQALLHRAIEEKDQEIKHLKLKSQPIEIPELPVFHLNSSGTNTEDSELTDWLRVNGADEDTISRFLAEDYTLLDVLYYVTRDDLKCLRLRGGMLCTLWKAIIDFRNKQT

For experiment [5], the target named is T2, CDK11 (Homo sapiens, UniProt Q9BWU1).
T2 construct: gene CDK19

The target of experiment [6] is CDK5 (Homo sapiens, UniProt Q00535).
Experiment [7] addresses DAPK1 (Homo sapiens, UniProt P53355).
Experiment [8] concerns the target EGFR(L858R) (Homo sapiens, UniProt P00533, L858R).
In experiment [9] the target is FGFR2 (Homo sapiens, UniProt P21802).
Experiment [10] concerns the target T3, IKK-beta (Homo sapiens, UniProt O14920).
T3 construct: gene IKBKB

The target in experiment [11] is T4, IKK-epsilon (Homo sapiens, UniProt Q14164).
T4 construct: gene IKBKE
T4 sequence (Q14164 whole entry): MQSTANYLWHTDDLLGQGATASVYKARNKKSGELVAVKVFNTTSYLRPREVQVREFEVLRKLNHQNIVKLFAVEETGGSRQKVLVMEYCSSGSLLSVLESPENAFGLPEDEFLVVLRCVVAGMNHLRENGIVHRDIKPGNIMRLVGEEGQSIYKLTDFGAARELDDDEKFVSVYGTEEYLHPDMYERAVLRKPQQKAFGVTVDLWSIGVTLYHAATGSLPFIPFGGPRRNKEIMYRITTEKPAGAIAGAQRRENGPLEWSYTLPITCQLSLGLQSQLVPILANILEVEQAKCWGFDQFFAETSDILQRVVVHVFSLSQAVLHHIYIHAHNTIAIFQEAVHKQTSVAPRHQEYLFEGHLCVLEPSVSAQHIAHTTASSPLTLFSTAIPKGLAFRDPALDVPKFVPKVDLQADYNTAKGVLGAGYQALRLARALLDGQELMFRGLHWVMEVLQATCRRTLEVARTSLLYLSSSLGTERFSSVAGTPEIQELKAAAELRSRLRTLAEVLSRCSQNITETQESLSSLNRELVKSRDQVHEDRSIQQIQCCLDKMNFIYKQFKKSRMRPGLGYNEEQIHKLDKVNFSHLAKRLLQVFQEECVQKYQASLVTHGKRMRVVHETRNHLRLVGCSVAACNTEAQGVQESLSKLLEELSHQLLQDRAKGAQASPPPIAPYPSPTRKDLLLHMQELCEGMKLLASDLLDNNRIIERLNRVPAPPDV

Experiment [12] concerns the target KIT(D816V) (Homo sapiens, UniProt P10721, D816V).
Experiment [13] deals with LIMK2 (Homo sapiens, UniProt P53671).
Experiment [14] has as its target LRRK2(G2019S) (Homo sapiens, UniProt Q5S007, G2019S).
Experiment [15] addresses MAPKAPK2 (Homo sapiens, UniProt P49137).
The target of experiment [16] is T5, MEK2 (Homo sapiens, UniProt P36507).
T5 construct: gene MAP2K2

Experiment [17] concerns the target NEK3 (Homo sapiens, UniProt P51956).
Experiment [18] has as its target PIK3CA (Homo sapiens, UniProt P42336).
The target of experiment [19] is T6, RSK4(Kin.Dom.1-N-terminal) (Homo sapiens, UniProt Q9UK32).
T6 construct: gene RPS6KA6; Kin.Dom.1-N-terminal
T6 sequence (Q9UK32 whole entry): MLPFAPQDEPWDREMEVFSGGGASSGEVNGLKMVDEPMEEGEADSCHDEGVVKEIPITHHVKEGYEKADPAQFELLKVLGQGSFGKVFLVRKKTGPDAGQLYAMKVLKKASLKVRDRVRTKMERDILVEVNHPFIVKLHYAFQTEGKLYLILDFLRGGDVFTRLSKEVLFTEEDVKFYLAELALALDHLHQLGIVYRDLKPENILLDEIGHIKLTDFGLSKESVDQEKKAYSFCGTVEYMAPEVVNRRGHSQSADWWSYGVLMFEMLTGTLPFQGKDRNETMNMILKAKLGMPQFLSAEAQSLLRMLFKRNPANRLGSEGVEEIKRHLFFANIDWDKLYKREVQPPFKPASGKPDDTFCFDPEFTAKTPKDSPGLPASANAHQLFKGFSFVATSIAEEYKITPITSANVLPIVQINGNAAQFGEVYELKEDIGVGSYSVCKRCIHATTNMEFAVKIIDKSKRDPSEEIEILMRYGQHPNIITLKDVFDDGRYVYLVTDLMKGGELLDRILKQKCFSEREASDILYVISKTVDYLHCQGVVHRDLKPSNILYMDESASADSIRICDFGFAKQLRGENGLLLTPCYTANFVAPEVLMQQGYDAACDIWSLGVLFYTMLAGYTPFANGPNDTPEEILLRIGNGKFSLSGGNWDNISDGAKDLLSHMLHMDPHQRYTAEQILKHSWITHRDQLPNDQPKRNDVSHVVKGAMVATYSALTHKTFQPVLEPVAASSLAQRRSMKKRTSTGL

For experiment [20], the target named is TIE1 (Homo sapiens, UniProt P35590).
Experiment [21] concerns the target T7, TRKB (Homo sapiens, UniProt Q16620).
T7 construct: gene NTRK2

Experiment [22] concerns the target TXK (Homo sapiens, UniProt P42681).
Experiment [23] addresses TYRO3 (Homo sapiens, UniProt Q06418).

DAPK1, sequence (P53355 whole entry): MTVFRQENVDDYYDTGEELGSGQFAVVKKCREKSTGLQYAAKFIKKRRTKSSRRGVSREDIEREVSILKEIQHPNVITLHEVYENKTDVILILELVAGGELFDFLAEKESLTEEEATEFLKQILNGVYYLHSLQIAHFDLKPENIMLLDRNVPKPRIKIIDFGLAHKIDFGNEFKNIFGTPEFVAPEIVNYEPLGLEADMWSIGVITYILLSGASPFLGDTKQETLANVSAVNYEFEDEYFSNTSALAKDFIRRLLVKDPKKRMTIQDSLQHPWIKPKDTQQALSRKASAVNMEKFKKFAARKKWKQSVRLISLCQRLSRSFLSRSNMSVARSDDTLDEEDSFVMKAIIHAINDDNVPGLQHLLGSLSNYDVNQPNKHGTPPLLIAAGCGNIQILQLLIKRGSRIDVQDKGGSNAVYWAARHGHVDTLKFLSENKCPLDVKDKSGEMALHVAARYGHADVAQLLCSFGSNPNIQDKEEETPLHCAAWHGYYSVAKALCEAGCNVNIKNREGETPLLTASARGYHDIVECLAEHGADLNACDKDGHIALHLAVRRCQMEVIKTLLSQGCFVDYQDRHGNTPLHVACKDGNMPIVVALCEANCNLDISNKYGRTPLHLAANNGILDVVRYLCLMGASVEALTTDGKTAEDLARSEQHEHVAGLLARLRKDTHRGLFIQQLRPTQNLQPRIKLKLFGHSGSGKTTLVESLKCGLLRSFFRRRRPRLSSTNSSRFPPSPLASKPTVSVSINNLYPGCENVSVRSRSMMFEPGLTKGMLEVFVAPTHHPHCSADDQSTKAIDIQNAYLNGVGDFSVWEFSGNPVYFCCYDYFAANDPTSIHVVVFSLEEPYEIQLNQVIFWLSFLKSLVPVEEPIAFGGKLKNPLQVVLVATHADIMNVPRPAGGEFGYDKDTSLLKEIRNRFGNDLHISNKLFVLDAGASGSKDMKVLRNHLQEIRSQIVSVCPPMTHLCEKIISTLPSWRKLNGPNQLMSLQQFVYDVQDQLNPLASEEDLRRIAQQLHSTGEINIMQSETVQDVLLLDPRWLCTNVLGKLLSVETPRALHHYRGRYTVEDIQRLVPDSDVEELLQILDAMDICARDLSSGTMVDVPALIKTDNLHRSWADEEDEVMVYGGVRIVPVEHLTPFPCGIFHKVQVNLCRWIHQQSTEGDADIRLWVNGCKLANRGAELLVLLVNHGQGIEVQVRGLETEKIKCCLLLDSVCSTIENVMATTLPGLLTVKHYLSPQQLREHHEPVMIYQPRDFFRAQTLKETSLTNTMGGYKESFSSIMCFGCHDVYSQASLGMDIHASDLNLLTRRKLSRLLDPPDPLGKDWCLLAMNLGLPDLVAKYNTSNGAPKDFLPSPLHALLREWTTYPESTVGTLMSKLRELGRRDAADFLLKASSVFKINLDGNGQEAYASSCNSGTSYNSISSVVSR
T7 sequence (Q16620 whole entry): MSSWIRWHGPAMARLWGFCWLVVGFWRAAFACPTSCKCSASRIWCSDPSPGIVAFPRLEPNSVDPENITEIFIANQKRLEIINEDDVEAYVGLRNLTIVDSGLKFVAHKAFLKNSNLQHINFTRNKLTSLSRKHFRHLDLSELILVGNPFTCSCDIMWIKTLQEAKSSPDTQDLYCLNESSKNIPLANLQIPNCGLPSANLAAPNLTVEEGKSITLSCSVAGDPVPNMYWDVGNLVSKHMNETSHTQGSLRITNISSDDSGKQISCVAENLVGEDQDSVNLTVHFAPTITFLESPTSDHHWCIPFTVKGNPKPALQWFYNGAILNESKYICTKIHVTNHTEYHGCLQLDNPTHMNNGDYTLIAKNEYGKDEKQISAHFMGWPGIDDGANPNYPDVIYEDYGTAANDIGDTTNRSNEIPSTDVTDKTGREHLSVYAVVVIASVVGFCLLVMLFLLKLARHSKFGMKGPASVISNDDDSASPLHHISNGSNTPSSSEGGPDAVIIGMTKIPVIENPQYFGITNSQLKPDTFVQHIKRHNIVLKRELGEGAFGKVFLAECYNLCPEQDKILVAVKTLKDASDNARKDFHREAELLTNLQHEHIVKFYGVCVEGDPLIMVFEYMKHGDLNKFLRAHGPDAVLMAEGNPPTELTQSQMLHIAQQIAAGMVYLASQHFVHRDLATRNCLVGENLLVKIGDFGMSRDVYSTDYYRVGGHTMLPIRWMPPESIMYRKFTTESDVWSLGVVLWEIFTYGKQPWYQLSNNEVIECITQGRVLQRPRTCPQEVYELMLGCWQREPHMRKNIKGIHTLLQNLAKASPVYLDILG

Turning to `COc1ccc(-c2cnccc2-c2cnc(NC(=O)C(C)C)s2)c(C(F)(F)F)c1` [CRT0105446, N-{5-[3-(4-Methoxy-2-trifluoromethyl-phenyl)-pyridin-4-yl]-hiazol-2-yl}-isobutyramide], the remaining binding at 10 µM was determined as 78% in experiment [1]; 100% in experiment [2]; 89% in experiment [3]; 100% in experiment [4]; 34% in experiment [5]; 60% in [6]. Besides, the remaining binding at 10 µM in experiment [7] amounted to 100%; in experiment [8] it was 76%; in experiment [9] it was 100%; in [10], 88%; in [11], 85%; in [12], 83%. For the same molecule, the remaining binding at 10 µM came to 1.1% in experiment [13]; 86% in experiment [14]; 100% in experiment [15]; 92% in [16]; 100% in experiment [17]; 100% in experiment [18]. The remaining binding at 10 µM in [19] was found to be 59%; in experiment [20], 87%; in [21], 99%; in [22], 100%; in experiment [23], 100%.

As to `Cc1ccc(-c2cnccc2-c2cnc(Nc3ccc(O)cc3)s2)c(Cl)c1` [CRT0105950, 4-{5-[3-(2-Chloro-4-methyl-phenyl)-pyridin-4-yl]-thiazol-2-ylamino}-phenol], the remaining binding at 10 µM was 51% in experiment [1]; 58% in experiment [2]; 20% in [3]; 100% in experiment [4]; 2.3% in experiment [5]; 12% in experiment [6]. The remaining binding at 10 µM in [7] came to 82%; in experiment [8] it was 69%; in [9], 17%; in experiment [10] it was 88%; in experiment [11] it was 41%; in experiment [12], 2.8%. The remaining binding at 10 µM in [13] stood at 0%; in experiment [14], 56%; in [15], 100%; in [16], 42%; in experiment [17], 88%; in [18], 100%. Further, the remaining binding at 10 µM in experiment [19] amounted to 0.4%; in experiment [20] it was 16%; in experiment [21], 6.4%; in experiment [22] it was 38%; in [23], 51%.

Source of the values: publication PMC4770715, “LIM kinase inhibitors disrupt mitotic microtubule organization and impair tumor cell proliferation” (Oncotarget, 2015).
